Experimental data as given in PMC5084075 (ACS Central Science, 2016).
Like-named read-outs stand apart in the source and are kept apart here.

What was measured:
[1] = test system: T1, Plasmodium falciparum K1 (chloroquine resistant); assay: microbe, parasite or virus in culture; set-up: species or system P. falciparum blood stage culture; whole-cell asexual blood stage P. falciparum growth inhibition
T1 construct: K1
Description: (§1) To confirm the promise of the two starting points OSM-S-5 and -6, they were evaluated against 3D7 (drug-sensitive) and K1 (chloroquine resistant) strains of Plasmodium falciparum in a whole cell assay and against HEK-293 cells as a cytotoxicity marker (Table SB1, Biological Protocols; tables with the prefix “SB” may be found in the Supporting Information). Biological data may be browsed in a static data set taken as a snapshot for this paper (Data Sets S1 (Excel), S2 (SDF)), online in a database constructed through periodic batch uploads,[68] or in a “living database” to which may be added future data;[69] the latter may be visualized in a web browser[70] using an open source system that was recently deployed in the Wikipedia Chemical Structure Explorer,[71] or the data may be downloaded and visualized offline with proprietary (Figure S4)[72] or open source (Figure S5)[73] tools). The evaluation was performed in three different institutions using different assays and widely employed controls; controls are important to assess reproducibility and interassay variability[74] but also to minimize possible bias in evaluating compounds where there are pre-existing data from other researchers already in the public domain (Figure S6).[75]

[2] = test system: Plasmodium falciparum Pfal (strain not named in column head); assay: microbe, parasite or virus in culture; set-up: species or system P. falciparum blood stage culture; whole-cell asexual blood stage P. falciparum growth inhibition
Description: as §1

[3] = target: T2, PfDHODH (Plasmodium falciparum, UniProt Q08210); assay: biochemical; set-up: PfDHODH enzyme inhibition IC50; details: read-out: DHODH
T2 sequence (Q08210 1-569): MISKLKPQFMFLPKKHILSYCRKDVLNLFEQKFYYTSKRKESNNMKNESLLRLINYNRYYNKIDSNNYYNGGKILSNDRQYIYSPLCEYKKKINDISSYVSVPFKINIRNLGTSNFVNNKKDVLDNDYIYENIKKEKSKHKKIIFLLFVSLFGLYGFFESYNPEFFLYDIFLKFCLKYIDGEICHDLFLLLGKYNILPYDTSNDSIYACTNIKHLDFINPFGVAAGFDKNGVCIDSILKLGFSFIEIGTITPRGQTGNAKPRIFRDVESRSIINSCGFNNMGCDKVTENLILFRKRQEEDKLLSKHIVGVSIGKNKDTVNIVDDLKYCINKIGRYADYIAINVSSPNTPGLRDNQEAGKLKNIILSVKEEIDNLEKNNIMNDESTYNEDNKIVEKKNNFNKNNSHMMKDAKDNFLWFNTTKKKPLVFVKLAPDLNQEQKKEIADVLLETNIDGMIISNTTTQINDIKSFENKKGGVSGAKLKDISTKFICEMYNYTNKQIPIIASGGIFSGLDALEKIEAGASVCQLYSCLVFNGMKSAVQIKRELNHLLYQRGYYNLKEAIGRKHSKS
From the text: The potency of the near neighbor set led to an in silico target prediction study being performed on OSM-S-39 (Text S11). The method employed a naive Bayes statistical model identifying molecular structural features of small molecules with protein targets, using the ChEMBL database. Similar statistical approaches based on known activities of compounds have been successfully applied to identify targets of antitubercular compounds.[112]−[114] A total of 1,287 proteins were included for which at least 50 active compounds were known with activities <10 μM, with the other compounds in the database comprising the inactives. After the OSM compounds were scored against each target, the scores obtained were standardized by comparison with scores obtained through comparison with a random set of >10K compounds. The prediction list was culled for proteins relevant to malaria (3D7 proteome), and the analysis gave as the most likely candidate targets, in order of significance, carboxy-terminal domain RNA polymerase II polypeptide A small phosphatase 1 (Q8I3U9), dihydroorotate dehydrogenase (DHODH, Q08210), SUMO-activating enzyme subunit 2 (Q8I553) and 1 (Q8IHS2), and cyclin-dependent kinase 1 (P61075). […] A line of inquiry remaining open is the equivalent assays against the other targets identified in the in silico prediction.

[4] = test system: HEK293; assay: cells; set-up: cytotoxicity counter-screen on HEK293 cells; details: Homo sapiens, cytotoxicity
Description: as §1

[5] = test system: T3, Plasmodium falciparum Pfal (K1); assay: microbe, parasite or virus in culture; set-up: species or system erythrocytes; P. falciparum asexual blood-stage whole-cell growth inhibition, IC50; details: K1, Erythrocyte
T3 construct: K1
Description: as §1

[6] = test system: T4, Plasmodium falciparum 3D7; assay: microbe, parasite or virus in culture; set-up: species or system P. falciparum blood stage culture; whole-cell asexual blood stage P. falciparum growth inhibition; details: Avery assay, read-out: 3D7 / IC50nM
T4 construct: 3D7
Description: as §1

[7] = test system: T5, Plasmodium falciparum Pfal (3D7); assay: microbe, parasite or virus in culture; set-up: species or system erythrocytes; P. falciparum asexual blood-stage whole-cell growth inhibition, IC50; details: 3D7, Erythrocyte, lab named in column head
T5 construct: 3D7
Description: as §1

[8] = in vitro; set-up: microsomal stability with NADPH, LC-MS, half-life and CLint; details: human, liver microsomes, HLM; for microsomal CLint: read-out: CLint HLM (Monash); for half-life: read-out: t1/2 HLM (Monash)
Description: (§2) The two original GSK hits (OSM-S-5 and -6) and six NN compounds were evaluated for their kinetic solubility in phosphate buffer and their metabolic stability in human liver microsomes (Table SB5, Data Sets S20 and S21).

[9] = in vitro; set-up: metabolic stability in human liver microsomes, LC-MS, NADPH, 0.4 mg/mL protein; details: liver microsomes, human liver microsomes; for microsomal CLint: read-out: CLint HLM (Monash); for half-life: read-out: t1/2 HLM (Monash)
Description: as §2

[10] = Guy assay, read-out: Pfal (K1) IC50 (Guy)
[11] = lab named in column head, read-out: Pfal (K1) IC50 (Guy)
[12] = Avery assay, read-out: K1 / IC50nM

Cc1cc(/C=C2\S/C(=N\c3ccccc3)NC2=O)c(C)n1-c1ccc(C#N)cc1 [OSM-A-2]
IC50 [1, 10]: 1830 nM
IC50 ([2]; Guy assay): 0.574 µM

O=C(CBr)OCc1cn(-c2ccc(F)cc2)nn1 [OSM-E-4]
IC50 ([2]; Dundee assay): > 50 µM

O=C1N=C(Nc2ccccc2)S/C1=C\c1ccccc1 [OSM-S-55]
IC50 [3]: > 50 µM

NC(=O)COCc1cn(-c2ccc(F)cc2)nn1 [OSM-E-8]
IC50 ([2]; Dundee assay): > 50 µM

Cc1cc(/C=C2\S/C(=N\c3cccc(O)c3)NC2=O)c(C)n1-c1ccc([N+](=O)[O-])cc1 [OSM-S-110]
inhibition at 40 µM [4]: 26%

Cc1cc(/C=C2\S/C(=N\c3ccccc3)NC2=O)c(C)n1-c1ccccn1 [OSM-S-51]
IC50 [3]: > 50 µM

COc1ccc(-n2c(C)cc(/C=C3\S/C(=N\c4cccc(O)c4)NC3=O)c2C)cc1 [OSM-S-112]
inhibition at 40 µM [4]: 38%

Cc1cc(/C=C2\S/C(=N\c3ccccc3)N(c3ccccc3)C2=O)c(C)n1-c1ccc(C(F)(F)F)cc1 [OSM-S-52]
IC50 [3]: > 50 µM

Cc1cc(S(=O)(=O)NCC(N)=O)c(C)n1-c1ccc(F)cc1 [OSM-E-2]
IC50 ([2]; Dundee assay): > 50 µM

C[C@@H]1CC[C@H]2[C@@H](C)C(=O)O[C@@H]3O[C@@]4(C)CC[C@@H]1[C@]32OO4 [Artemisinin]
IC50 ([5]; read-out: K1 / IC50nM): 0.61 nM
IC50 [6]: 6 nM

Cc1cc(/C=C2\SC(=Nc3ccccc3)NC2=O)c(C)n1-c1ccc(S(N)(=O)=O)cc1 [OSM-A-1]
IC50 ([7]; read-out: Pfal IC50 (Guy)): 3.05 µM
IC50 [5, 11]: 4380 nM
IC50 [1, 10]: 4380 nM
IC50 ([2]; Guy assay): 3.05 µM

Cc1cc(/C=C2\S/C(=N\c3ccccc3)N(C3CCCC3)C2=O)c(C)n1-c1ccc(C(F)(F)F)cc1 [OSM-S-54]
IC50 [3]: > 50 µM

CCOC(=O)COCc1cn(-c2ccc(F)cc2)nn1 [OSM-E-5]
IC50 ([2]; Dundee assay): > 50 µM

Cc1cc(C(=O)N(C(=O)NC2CCCCC2)C2CCCCC2)c(C)n1-c1ccc(F)cc1 [OSM-S-7]
IC50 [3]: > 50 µM

Cc1cc(C=O)c(C)n1-c1ccc(F)cc1 [OSM-S-2]
IC50 [3]: > 50 µM

Cc1ccc(-n2c(C)cc(/C=C3\SC(=Nc4ccccc4)NC3=O)c2C)cc1 [OSM-S-37]
IC50 [3]: > 50 µM
microsomal CLint [8]: 7 µL/min/mg
half-life [8]: 4.08 h
IC50 ([7]; read-out: Pfal IC50 (Guy)): 0.161 µM
IC50 [5, 11]: 176 nM
microsomal CLint [9]: 7 µL/min/mg
half-life [9]: 4.08 h
IC50 [1, 10]: 176 nM
IC50 ([2]; Guy assay): 0.161 µM

Cc1c(NC(=O)CNC(=O)c2ccccc2)c(=O)n(-c2ccccc2)n1C [OSM-S-16]
IC50 [3]: > 50 µM

Cc1cc(C(=O)NCC(N)=O)c(C)n1-c1ccc(F)cc1 [OSM-S-19]
IC50 [3]: > 50 µM

Cc1cc(C(=O)Nc2c(C)n(C)n(-c3ccccc3)c2=O)c(C)n1-c1ccc(F)cc1 [OSM-S-8]
IC50 [3]: > 50 µM

Cc1cc(C(=O)OCC(=O)Nc2c(C)n(C)n(-c3ccccc3)c2=O)c(C)n1-c1ccc(F)cc1 [OSM-S-6]
IC50 [3]: > 50 µM

Cc1cc(/C=C2\S/C(=N\c3cccc(O)c3)NC2=O)c(C)n1-c1ccccc1 [OSM-S-114]
inhibition at 40 µM [4]: 42%

O=C(COCc1cn(-c2ccc(F)cc2)nn1)OCc1cn(-c2ccc(F)cc2)nn1 [OSM-E-7]
IC50 ([2]; Dundee assay): > 50 µM

CCOC(=O)c1cc(C)n(-c2ccc(F)cc2)c1C [OSM-S-3]
IC50 [3]: > 50 µM

Cc1cc(S(=O)(=O)N(C)CC(N)=O)c(C)n1-c1ccc(F)cc1 [OSM-E-1]
IC50 ([2]; Dundee assay): > 50 µM

CC(=O)N(C1=NC(=O)/C(=C/c2cc(C)n(-c3ccc(C(F)(F)F)cc3)c2C)S1)c1ccccc1 [OSM-S-45]
IC50 [3]: > 50 µM

Cc1cc(/C=C2\S/C(=N\c3ccccc3)N(CC#N)C2=O)c(C)n1-c1ccc(C(F)(F)F)cc1 [OSM-S-42]
IC50 [3]: > 50 µM

COc1cc(C)c2c(Oc3cccc(C(F)(F)F)c3)c(OC)cc(NC(C)CCCN)c2n1 (centres unmarked) [Tafenoquine]
IC50 [6]: 451 nM
IC50 [1, 12]: 451 nM

CC(=O)N(C1=NC(=O)/C(=C/c2cc(C)n(-c3ccc(C)cc3)c2C)S1)c1ccccc1 [OSM-S-50]
IC50 [3]: > 50 µM

Cc1cc(/C=C2\SC(=Nc3ccccc3)N(c3ccccc3)C2=O)c(C)n1-c1cccc(F)c1 [OSM-L-1]
IC50 ([7]; read-out: Pfal IC50 (Batra)): 3.2 µM
IC50 ([5]; lab named in column head, read-out: Pfal (K1) IC50 (Batra)): > 5000 nM

Cc1cc(/C=C2\S/C(=N\c3ccc(O)cc3)NC2=O)c(C)n1-c1ccccc1 [OSM-S-115]
inhibition at 40 µM [4]: 35%

Cc1c(S(=O)(=O)N(C)CC(N)=O)c(S(=O)(=O)N(C)CC(N)=O)c(C)n1-c1ccc(F)cc1 [OSM-E-3]
IC50 ([2]; Dundee assay): > 50 µM

Cc1cc(C(=O)NCC(=O)Nc2c(C)n(C)n(-c3ccccc3)c2=O)c(C)n1-c1ccc(F)cc1 [OSM-S-21]
IC50 [3]: > 50 µM

Cc1cc(/C=C2\S/C(=N\c3ccccc3)N(c3ccccc3)C2=O)c(C)n1-c1cccc(F)c1 [OSM-L-1]
IC50 ([1]; Batra assay, read-out: Pfal (K1) IC50 (Batra)): > 5000 nM
IC50 ([2]; Batra assay): 3.2 µM

Cc1cc(/C=C2\S/C(=N\c3ccccc3)NC2=O)c(C)n1-c1ccc(F)cc1 [OSM-S-10]
microsomal CLint [8]: 17 µL/min/mg
half-life [8]: 1.72 h
microsomal CLint [9]: 17 µL/min/mg
half-life [9]: 1.72 h

COC(=O)COCc1cn(-c2ccc(F)cc2)nn1 [OSM-E-6]
IC50 ([2]; Dundee assay): > 50 µM

Cc1cc(/C=C2\S/C(=N\c3ccccc3)NC2=O)c(C)n1-c1ccc(I)cc1 [OSM-A-4]
IC50 [1, 10]: 3160 nM
IC50 ([2]; Guy assay): 1.75 µM

Cc1cc(/C=C2\S/C(=N\c3ccccc3)NC2=O)c(C)[nH]1 [OSM-S-108]
inhibition at 40 µM [4]: 44%

CCOC(=O)c1ccc(-n2c(C)cc(/C=C3\S/C(=N/c4ccccc4)NC3=O)c2C)cc1 [OSM-S-48]
IC50 [3]: > 50 µM

Cc1cc(/C=C2\SC(N(CC#N)c3ccccc3)=NC2=O)c(C)n1-c1ccc(C(F)(F)F)cc1 [OSM-S-43]
IC50 [3]: > 50 µM

Cc1cc(C(=O)O)c(C)n1-c1ccc(F)cc1 [OSM-S-4]
IC50 [3]: > 50 µM

CCN(CC)CCCC(C)Nc1ccnc2cc(Cl)ccc12 (centres unmarked) [Chloroquine]
IC50 [6]: 18.7 nM
IC50 [1, 12]: 266 nM

CC(=O)N(C1=NC(=O)/C(=C/c2cc(C)n(-c3ccccc3)c2C)S1)c1ccccc1 [OSM-S-49]
IC50 [3]: > 50 µM

COc1cccc(-n2c(C)cc(/C=C3\S/C(=N\c4ccccc4)NC3=O)c2C)c1 [OSM-A-3]
IC50 [1, 10]: 140 nM
IC50 ([2]; Guy assay): 0.098 µM
